Data on eight compounds can be found in PubChem BioAssay (NCI).

Among the test systems are OVCAR-8 ovarian; TK-10 renal; NCI/ADR-RES ovarian; HOP-62 NSCLC; HL-60(TB) leukemia; EKVX NSCLC; K-562 leukemia; UACC-62 melanoma; SNB-19 CNS; NCI-H23 lung; A498 renal; SW-620 colon; RXF 393 renal; T-47D breast; NCI-H460 lung; OVCAR-5 ovarian; A549 NSCLC; PC-3 prostate; HOP-92 NSCLC; BT-549 breast.
Common to all, as to assay: NCI tumour cell line growth inhibition, 48 h

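Compound exposure: 48 hours, 5 concentrations, 96-well plates. At the TGI there is no net growth.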 Where a SMILES comes first, the peptide text is derived from it. Bridges are numbered along the chain shown (N, C = ends). [ ]: non-standard residue; d: D form. The star is where a group is joined. PhAc = O=C(Cc1ccccc1)* Where only a bound is given, the exact number is not on record here.

For `CCC(=O)C1(N2CCOCC2)CCN(CCCC(=O)c2ccc(F)cc2)CC1`, the TGI with OVCAR-8 ovarian, with TK-10 renal, in the test with NCI/ADR-RES ovarian, in the test on HOP-62 NSCLC, in the test on HL-60(TB) leukemia and in the test on EKVX NSCLC was greater than 100 µM each time. The TGI in the test with K-562 leukemia, in the test on UACC-62 melanoma, with SNB-19 CNS, in the test on NCI-H23 lung, with A498 renal and in the test on SW-620 colon was greater than 100 µM in each case. Further, the TGI with RXF 393 renal, with T-47D breast, in the test on NCI-H460 lung, with OVCAR-5 ovarian, in the test on A549 NSCLC and in the test on PC-3 prostate was greater than 100 µM in each case.

With `CCOC(=O)[C@@H]1OC(c2ccccc2)O[C@H]1C(=O)OCC`, the TGI in the test with OVCAR-8 ovarian, in the test on TK-10 renal, in the test on NCI/ADR-RES ovarian, with HOP-62 NSCLC, in the test on EKVX NSCLC and in the test with K-562 leukemia was greater than 100 µM throughout. Moreover, the TGI in the test on UACC-62 melanoma, in the test with SNB-19 CNS, in the test with NCI-H23 lung, with A498 renal, in the test with SW-620 colon and in the test on HOP-92 NSCLC was greater than 100 µM each time. For the same compound, the TGI in the test with OVCAR-5 ovarian, with A549 NSCLC and with PC-3 prostate was greater than 100 µM each time.

For the compound `O=C(Cc1ccccc1)N[C@@H]1COC(=O)[C@@H]2CCCN2C(=O)[C@@H]2CCCN2C1=O` (PhAc-[dS]-Pro-Pro; ester 1-C), the TGI in the test on OVCAR-8 ovarian, with TK-10 renal, in the test with NCI/ADR-RES ovarian, in the test on HOP-62 NSCLC, in the test with HL-60(TB) leukemia and with EKVX NSCLC was greater than 100 µM in each case. Moreover, the TGI with UACC-62 melanoma, in the test with SNB-19 CNS, with NCI-H23 lung, in the test on A498 renal, with SW-620 colon and with RXF 393 renal was greater than 100 µM in each case. Further, the TGI in the test on T-47D breast, in the test on NCI-H460 lung, in the test with HOP-92 NSCLC, with OVCAR-5 ovarian, with A549 NSCLC and in the test with PC-3 prostate was greater than 100 µM throughout.

As to `Oc1cccc(-c2ccc3c4c2O[C@H]2c5[nH]c6ccccc6c5C[C@@]5(O)[C@@H](C3)N(CC3CC3)CC[C@]425)c1`, the TGI turned out to be 3.23 µM in the test on OVCAR-8 ovarian; 23 µM with BT-549 breast; 4.34 µM with TK-10 renal; 4.69 µM with NCI/ADR-RES ovarian; 4.03 µM in the test with HL-60(TB) leukemia; 29.7 µM in the test on EKVX NSCLC. Moreover, the TGI worked out at 3 µM with SNB-19 CNS; 5.17 µM in the test on NCI-H23 lung; 6.15 µM in the test on SW-620 colon; 2.63 µM in the test on RXF 393 renal; 4.42 µM in the test on HOP-92 NSCLC; 4.3 µM in the test on OVCAR-5 ovarian. The TGI with A549 NSCLC stood at 3.22 µM; in the test with PC-3 prostate, 3.44 µM.

`CCCCOCn1c(=O)[nH]c(=O)c2ccccc21`: the TGI in the test with OVCAR-8 ovarian, in the test with TK-10 renal, in the test with NCI/ADR-RES ovarian, in the test on HL-60(TB) leukemia, with EKVX NSCLC and in the test on K-562 leukemia was greater than 100 µM in each case. The TGI in the test on UACC-62 melanoma was greater than 100 µM; in the test with SNB-19 CNS, 55.5 µM; in the test with A498 renal, greater than 100 µM; in the test on SW-620 colon, greater than 100 µM; in the test with RXF 393 renal, greater than 100 µM; in the test with NCI-H460 lung it was greater than 100 µM. The TGI in the test with HOP-92 NSCLC, with OVCAR-5 ovarian and in the test with A549 NSCLC was greater than 100 µM in each case.

In the case of `Cc1nc2c(O)cc3c4c(=O)n(C)c(=O)n(C)c4n(Cc4ccccc4)c3c2nc1C`, the TGI came out at 33.1 µM in the test with OVCAR-8 ovarian; 38.4 µM in the test with TK-10 renal; 74.9 µM with NCI/ADR-RES ovarian; 33.6 µM in the test on HOP-62 NSCLC; 53.8 µM with HL-60(TB) leukemia; 50.2 µM with EKVX NSCLC. Besides, the TGI in the test with K-562 leukemia is greater than 100 µM; with UACC-62 melanoma it was 34 µM; in the test with SNB-19 CNS, 34.4 µM; in the test on NCI-H23 lung it was 38 µM; in the test on A498 renal it was 81.7 µM; in the test with SW-620 colon it was 44.2 µM. The TGI in the test on RXF 393 renal is 26.7 µM; with NCI-H460 lung, greater than 100 µM; with HOP-92 NSCLC, 27.2 µM; in the test with OVCAR-5 ovarian, 43.6 µM; in the test with A549 NSCLC it was 36.2 µM; in the test on PC-3 prostate, 31.2 µM.

On to `COc1cc(C2SCC(=O)N2Cc2ccccc2)cc(OC)c1OC` (configuration not stated), for which the TGI in the test on OVCAR-8 ovarian, with BT-549 breast, in the test with TK-10 renal, in the test on NCI/ADR-RES ovarian, in the test with HL-60(TB) leukemia and in the test on EKVX NSCLC was greater than 100 µM each time. The TGI with K-562 leukemia, in the test on UACC-62 melanoma, in the test on SNB-19 CNS, with NCI-H23 lung, with SW-620 colon and with NCI-H460 lung was greater than 100 µM throughout. In addition, the TGI in the test with HOP-92 NSCLC was 71.8 µM; with OVCAR-5 ovarian, greater than 100 µM; with A549 NSCLC it was greater than 100 µM; with PC-3 prostate it was greater than 100 µM.

Take `O=C1CCCC2=C1CC1=C(CCCC1=O)N2c1ccccc1C(=O)O`: the TGI with OVCAR-8 ovarian, in the test on BT-549 breast, in the test on TK-10 renal, with NCI/ADR-RES ovarian, in the test on HL-60(TB) leukemia and in the test with EKVX NSCLC was greater than 100 µM in each case. The TGI in the test on K-562 leukemia, with UACC-62 melanoma, with SNB-19 CNS, in the test on NCI-H23 lung, with A498 renal and with SW-620 colon was greater than 100 µM in each case. Also, the TGI in the test on RXF 393 renal, in the test with NCI-H460 lung, with HOP-92 NSCLC, in the test with OVCAR-5 ovarian, in the test with A549 NSCLC and in the test with PC-3 prostate was greater than 100 µM in each case.
